Measurements as given in BindingDB's records for doi:10.7270/Q2KP80J0 (The Scripps Research Institute Molecular Screening Center, 2007).

molecular target: T1, Ephrin type-B receptor 4 (Homo sapiens, UniProt P54760); assay: blockers of EphB4 ligand binding – biochemical, TNYL-RAW peptide displacement, dose response (AID 835); conditions: not given
T1 sequence (P54760 whole entry): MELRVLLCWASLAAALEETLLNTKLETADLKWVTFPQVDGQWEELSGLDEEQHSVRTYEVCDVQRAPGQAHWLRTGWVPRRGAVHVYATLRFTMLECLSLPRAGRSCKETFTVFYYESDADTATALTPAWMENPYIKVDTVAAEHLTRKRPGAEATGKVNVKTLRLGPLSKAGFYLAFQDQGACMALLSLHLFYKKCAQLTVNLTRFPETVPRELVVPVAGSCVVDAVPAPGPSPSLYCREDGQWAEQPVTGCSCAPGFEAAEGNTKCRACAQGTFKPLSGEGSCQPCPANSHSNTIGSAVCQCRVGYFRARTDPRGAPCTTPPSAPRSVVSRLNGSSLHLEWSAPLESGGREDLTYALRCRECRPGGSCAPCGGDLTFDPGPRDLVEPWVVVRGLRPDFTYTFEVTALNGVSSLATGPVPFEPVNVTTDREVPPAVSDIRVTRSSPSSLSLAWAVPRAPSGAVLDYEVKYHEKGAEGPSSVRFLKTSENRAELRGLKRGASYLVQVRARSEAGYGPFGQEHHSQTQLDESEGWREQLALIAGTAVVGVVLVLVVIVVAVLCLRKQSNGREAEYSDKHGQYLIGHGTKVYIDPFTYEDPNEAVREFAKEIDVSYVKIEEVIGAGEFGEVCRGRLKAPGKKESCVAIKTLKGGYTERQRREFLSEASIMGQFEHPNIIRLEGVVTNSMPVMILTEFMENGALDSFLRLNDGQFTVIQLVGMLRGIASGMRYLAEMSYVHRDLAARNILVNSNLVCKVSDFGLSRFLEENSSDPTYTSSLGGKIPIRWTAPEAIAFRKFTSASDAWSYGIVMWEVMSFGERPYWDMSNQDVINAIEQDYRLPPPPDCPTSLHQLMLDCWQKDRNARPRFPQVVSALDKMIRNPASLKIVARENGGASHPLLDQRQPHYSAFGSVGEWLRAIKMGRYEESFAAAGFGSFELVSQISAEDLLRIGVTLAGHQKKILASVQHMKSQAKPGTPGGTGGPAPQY

Compound	IC50
CCCc1[nH]nc2c1C(c1ccc(OC)c(Cn3nnc4ccccc43)c1)C(C#N)C(=N)O2 (centres undefined)	> 79.4 µM
O=C1CCCc2c1[nH]c1ccccc21	> 79.4 µM
CC(C)CCn1c(SCCN2CCOCC2)nc2c1c(=O)[nH]c(=O)n2C	> 79.4 µM
CCOc1cccc(-n2c(O)cc(=O)[nH]c2=O)c1	> 79.4 µM
CC(C)(C)C1CCC2(CC1)SCC(=O)N2c1ccccc1 (centres undefined)	> 79.4 µM
CCN1C(=O)C(=CNc2ccc(N3CCOCC3)cc2)C(=O)N(CC)C1=S	> 79.4 µM
Cc1ccc(Cn2c(SCCN3CCCCC3)nc3c2c(=O)n(C)c(=O)n3C)cc1 [1,3-Dimethyl-7-(4-methyl-benzyl)-8-(2-piperidin-1-yl-ethylsulfanyl)-3,7-dihydro-purine-2,6-dione]	> 79.4 µM
Cn1cc(S(=O)(=O)N2CCN(c3ccccc3)CC2)c(=O)n(C)c1=O [1,3-dimethyl-5-(4-phenylpiperazin-1-yl)sulfonyl-pyrimidine-2,4-dione]	> 79.4 µM
C=CCn1c(NCCc2ccccc2)nc2c1c(=O)n(C)c(=O)n2C [1,3-dimethyl-8-(2-phenylethylamino)-7-prop-2-enyl-purine-2,6-dione]	> 79.4 µM
O=C(c1ccc(COc2ccccc2Cl)o1)N1CCN(Cc2ccc3c(c2)OCO3)CC1 [1-(1,3-benzodioxol-5-ylmethyl)-4-{5-[(2-chlorophenoxy)methyl]-2-furoyl}piperazine]	> 79.4 µM
Cn1c(=O)c(NCCO)c2c3c(cccc31)C(=O)c1ccccc1-2 [1-(2-Hydroxy-ethylamino)-3-methyl-3H-naphtho[1,2,3-de]quinoline-2,7-dione]	8.4 µM
CC(=O)c1ccc(-n2nnnc2SCC(=O)N2CCc3ccccc3C2)cc1 [1-(3,4-dihydro-1H-isoquinolin-2-yl)-2-[[1-(4-ethanoylphenyl)-1,2,3,4-tetrazol-5-yl]sulfanyl]ethanone]	> 79.4 µM
Cc1ccc(N2C(=O)C(O)(C(F)(F)F)C3=C2CC(C)(C)CC3=O)cc1C (centres undefined) [1-(3,4-dimethylphenyl)-3-hydroxy-6,6-dimethyl-3-(trifluoromethyl)-3,5,6,7-tetrahydro-1H-indole-2,4-dione]	> 79.4 µM
CCOC(=O)c1sc2nc(C)c3c(c2c1N)CC(C)(C)OC3 [1-Amino-5,8,8-trimethyl-8,9-dihydro-6H-7-oxa-3-thia-4-aza-cyclopenta[a]naphthalene-2-carboxylic acid ethyl ester]	> 79.4 µM
COCCn1c(C)cc(C(=O)COc2nc3ccccc3nc2C)c1C [1-[1-(2-methoxyethyl)-2,5-dimethyl-3-pyrrolyl]-2-[(3-methyl-2-quinoxalinyl)oxy]ethanone]	> 79.4 µM
Cc1cc(C(=O)CSc2nnc(Nc3ccccc3F)s2)c(C)n1CC1CCCO1 (centres undefined) [1-[2,5-dimethyl-1-(2-oxolanylmethyl)-3-pyrrolyl]-2-[[5-(2-fluoroanilino)-1,3,4-thiadiazol-2-yl]thio]ethanone]	> 79.4 µM
CC(=O)c1ccc(N2CCN(C(=O)c3ccc(Br)cc3)CC2)c(F)c1 [1-[4-[4-(4-bromobenzoyl)piperazin-1-yl]-3-fluorophenyl]ethanone]	> 79.4 µM
CCOC(=O)C1CCN(S(=O)(=O)Cc2ccccc2)C1=O (centres undefined) [1-benzylsulfonyl-2-keto-pyrrolidine-3-carboxylic acid ethyl ester]	> 79.4 µM
CC(c1ccccc1)C1CC(=O)N(C2CCCCC2)C1=O (centres undefined) [1-cyclohexyl-3-(1-phenylethyl)-2,5-pyrrolidinedione]	> 79.4 µM

Compound	IC50
c1coc(-c2nc(-c3ccco3)c(-c3ccco3)nc2-c2ccco2)c1 [2,3,5,6-tetrakis(2-furanyl)pyrazine]	> 79.4 µM
O=C(Nc1cccnc1)C1COc2ccccc2O1 (centres undefined) [2,3-Dihydro-benzo[1,4]dioxine-2-carboxylic acid pyridin-3-ylamide]	> 79.4 µM
Cc1cc(C)c(S(=O)(=O)NCc2cn3c(C)csc3n2)cc1C [2,4,5-trimethyl-N-[(3-methyl-6-imidazo[2,1-b]thiazolyl)methyl]benzenesulfonamide]	> 79.4 µM
Cc1cc(=O)oc(C)c1C(=O)OCC(=O)c1ccc(Cl)cc1 [2,4-Dimethyl-6-oxo-6H-pyran-3-carboxylic acid 2-(4-chloro-phenyl)-2-oxo-ethyl ester]	> 79.4 µM
CSc1cccc(-n2c(C)cc(C(N)=O)c2C)c1 [2,5-dimethyl-1-(3-methylsulfanylphenyl)pyrrole-3-carboxamide]	> 79.4 µM
Cc1c2cc(O)c(=O)cc-2oc2cc(O)c(O)cc12 [2,6,7-Trihydroxy-9-methyl-xanthen-3-one]	3.6 µM
CCCc1nnc(NC(=O)CN2C(=O)c3ccccc3S2(=O)=O)s1 [2-(1,1-dioxido-3-oxo-1,2-benzisothiazol-2(3H)-yl)-N-(5-propyl-1,3,4-thiadiazol-2-yl)acetamide]	> 79.4 µM
CCOC(=O)c1cnc(Nc2nc3ccccc3o2)nc1CN1CCN(C)CC1 [2-(1,3-benzoxazol-2-ylamino)-4-[(4-methyl-1-piperazinyl)methyl]-5-pyrimidinecarboxylic acid ethyl ester]	> 79.4 µM
O=C(COC(=O)C(Cc1ccccc1)NC(=O)c1ccco1)NC1CC1 (centres undefined) [2-(2-furoylamino)-3-phenyl-propionic acid [2-(cyclopropylamino)-2-keto-ethyl] ester]	> 79.4 µM
O=c1c2ccccc2nc(-c2ccoc2)n1CCc1ccccc1 [2-(3-furanyl)-3-(2-phenylethyl)-4-quinazolinone]	> 79.4 µM
COc1cccc(C(C#N)N2CCOCC2)c1 (centres undefined) [2-(3-methoxyphenyl)-2-(4-morpholinyl)acetonitrile]	> 79.4 µM
O=C(CSc1nnc(-c2ccccn2)n1Cc1ccccc1)NC1CCCC1 [2-(4-Benzyl-5-pyridin-2-yl-4H-[1,2,4]triazol-3-ylsulfanyl)-N-cyclopentyl-acetamide]	> 79.4 µM
Cc1c(NC(=O)COC(=O)C(c2ccc(Cl)cc2)C(C)C)c(=O)n(-c2ccccc2)n1C (centres undefined) [2-(4-chlorophenyl)-3-methyl-butyric acid [2-keto-2-[(3-keto-1,5-dimethyl-2-phenyl-3-pyrazolin-4-yl)amino]ethyl] ester]	> 79.4 µM
CCCc1nnc(NC(=O)CNc2ccc(F)cc2)s1 [2-(4-fluoroanilino)-N-(5-propyl-1,3,4-thiadiazol-2-yl)acetamide]	> 79.4 µM
Cc1[nH]c2ccccc2c1/C=C1\N=C(c2ccc(F)cc2)OC1=O [2-(4-fluorophenyl)-4-[(2-methyl-1H-indol-3-yl)methylene]-1,3-oxazol-5(4H)-one]	> 79.4 µM
CCCOC(=O)C(C)n1cnc2sc(C)c(C)c2c1=O (centres undefined) [2-(4-keto-5,6-dimethyl-thieno[2,3-d]pyrimidin-3-yl)propionic acid propyl ester]	> 79.4 µM
Cc1ccc(-c2nc3cccnc3o2)cc1NC(=O)COc1ccc(C(C)(C)C)cc1 [2-(4-tert-butylphenoxy)-N-(2-methyl-5-[1,3]oxazolo[5,4-b]pyridin-2-ylphenyl)acetamide]	> 79.4 µM
CN(C)c1nccc(Nc2ccccc2)c1C#N [2-(dimethylamino)-4-phenylazanyl-pyridine-3-carbonitrile]	> 79.4 µM

same assay, conditions: inactive by the depositor's call

Compound	IC50
CCNc1c2c3c(cccc3n(C)c1=O)C(=O)c1ccccc1-2 [1-(ethylamino)-3-methyl-3H-naphtho[1,2,3-de]quinoline-2,7-dione]	25.7 µM
CCn1c(CSc2nnc3ccccn23)nc2cc(C(=O)O)ccc21 [1-ethyl-2-[([1,2,4]triazolo[4,3-a]pyridin-3-ylthio)methyl]-5-benzimidazolecarboxylic acid]	20.4 µM
